From patent US7973021B2, “Immunomodulating agent in gut” (Kabushiki Kaisha Hayashibara Seibutsu Kagaku Kenkyujo, priority 2005, dated 2011)

Legend:
[1] = tested on: female BALB/c mice; test: IgA content in feces of mice fed saccharide-supplemented purified diet (ELISA); type: in vivo; conditions: for IgA content in feces: average of five mice
Procedure: To investigate immunomodulating effects of various saccharides, IgA contents in feces of mice administered saccharides were measured. After six-week-old female BALB/c mice were preliminarily grown for a week with AIN-93G, which is a standard growth purified diet for nutritional study using mice or rats introduced by American Institute of Nutrition in 1993, they were separated in groups of five mice each, and unlimitedly administered the test diets, which is made by supplementing 5 w/w % of the cyclic tetrasaccharide (produced in Example 2), 5 w/w % of nigerooligosaccharide (12.5 w/w % of “NISSHOKU TASTE OLIGO SYRUP”, containing 40% or more of nigerooligosaccharide on a dry solid basis, commercialized by Nihon Shokuhin Kako Co., Ltd.), or 5 w/w % of isomaltooligosaccharide (“ISOMALT 90” commercialized by Hayashibara Shoji, Inc.) to the same formula diet described above except the amount of corn starch was reduced by the relevant weight of the added test saccharide. As control, one group was administered with the standard growth purified diet (AIN-93G) without the test saccharides described above. After 1, 2, 3 and 4 weeks from the initial administration of the test or control diets, fresh feces were taken from each mouse and IgA content was measured by the ELISA method using anti-IgA antibody (MOUSE IgA ELISA QUANTITATION KIT produced by Bethyl Laboratories, Inc). The values expressed in percent in Table 1 mean the relative amounts with respect to control in each week.

[2] = tested on: female BALB/c mice; test: Amounts of organic acids in cecal contents of mice ingesting the saccharides (ion chromatography); type: in vivo
Procedure: To investigate the effects of the various saccharides on the enteric environment of mice, the contents of organic acids in the cecal contents were measured. After the cecal contents taken from the mice administered the purified diet containing the test saccharides or the control purified diet in Experiment 2 were suspended in an adequate amount of purified water, their supernatants collected by centrifugation were filtered with membrane (pore size of 0.45 μm). The filtrates were subjected to an ion chromatoanalyzer IC500P (produced by Yokogawa Electric Corporation) loaded with precolumn PCS5-052 and separation column SCS5-252, and eluted with 2 mM sulfuric acid (1.0 ml/min) to analyze the amounts of organic acids. The values expressed in percent in Table 4 mean the relative amounts of each organic acid in the cecal contents to those of the control mice.

[3] = tested on: Peyer's patch cells; test: Effects of saccharides on IFN-γ and IL-4 production of Peyer's patch cells in vitro (ELISA); type: cell-based, mice; conditions: saccharide 0.1 mg/ml; for Relative amount of IFN-γ / Relative amount of IL-4: 72 hours, relative to control; for IFN-γ production by stimulation of concanavalin A (in words): in vitro
Procedure: To investigate direct effects of various saccharides on Peyer's patch cells, the amounts of IFN-γ and IL-4 produced in Peyer's patch cells taken from mice by adding various kinds of saccharide in an in vitro experiment. After six-week-old female BALB/c mice were preliminarily grown for a week with a standard growth purified diet (AIN-93G), their Peyer's patch cells were collected according to the method of Experiment 3. The cell suspension at a concentration of 1×10^6 cells/ml was prepared with RPMI1640 medium containing 10% FCS and 10 mM HEPES and seeded in 24-well microplates by 1 ml/well. After the test saccharides (the cyclic tetrasaccharide, nigerose or isomaltose) were added in an amount of 0.1 mg/ml and lipopolysaccharide (LPS) or concanavalin A (ConA) of 2 μg/ml, they were cultured at 37° C. for 72 hours in an atmosphere of 5% carbon dioxide. The amounts of IFN-γin the supernatants were measured by the ELISA method using anti-mouse- IFN-γ antibodies (MURINE IFN-γELISA DEVELOPMENT KIT, produced by PeproTech, Inc.), and the amounts of IL-4 were measured by the ELISA method using anti-mouse-IL-4 antibodies (Mouse IL-4 ELISA DEVELOPMENT KIT, produced by Genzyme-Techne). As a control, the amounts of IFN-γ and IL-4 produced in Peyer's patch cells cultured with the medium without adding the test saccharides by the same way described above. The values in Table 5 were shown as the relative amounts (%) to control.

[4] = tested on: Peyer's patch cells; test: IgA, IL-6 and TGF-β produced by Peyer's patch cells taken from mice administered the saccharides (ConA culture, ELISA); type: in vivo
Procedure: To investigate the immnomodulating effect of the various saccharides, the contents of IgA, IL-6 and TGF-βproduced by the Peyer's patch cells taken from the mice administered the saccharides. After the Peyer's patches taken from the mice administered with the purified diet containing the test saccharides or the control purified diet in Experiment 2 were cut by scissors, they were treated in 0.2 w/w % collagenase solution at 37° C. for 30 minutes. They were filtered through a cell strainer and the filtrate containing the cells were centrifuged to give the cell precipitates. They were suspended in 45 w/w % PARCOR (commercialized by Amersham, PLC), the cell suspensions were layered on 75 w/w % PARCOR and centrifuged for 10 minutes at 1,000 g. Cells floating at the interface between 45 w/w % PARCOR and 75 w/w % PARCOR were collected and suspended in RPM1164 medium containing 10% FCS and 10 mM HEPES to give the cell suspensions at a concentration of 1×10^6 cells/ml. They were seeded in 24-well microplates by 1 ml/well, added with 2 μg/m1 of concanavalin A, and cultured at 37° C. for 48 hours in atmosphere of 5% carbon dioxide. The culture supernatant was collected from each well and their IgA contents, TGF-βcontents or IL-6 contents were measured by ELISA method using anti-mouse-IgA antibody, anti-mouse-IL-6 antibody and anti-mouse-TGF-μ1 antibody, then the averages were calculated from the data of five mice. The values in Table 3 means relative amounts (%) to IgA, IL-6 or TGF-β amount produced in Peyer's patch cells taken from the control mice.

[5] = tested on: female BALB/c mice; test: Analysis of cecal contents (pH, weight, IgA, IgG) of mice fed saccharide diets for 4 weeks; type: in vivo
Procedure: To investigate the immunomodulating effect of the various saccharides, IgA content and IgG content in the cecal contents of the mice administered saccharides were measured. After the mice fed on the purified diet containing the test saccharide or the control purified diet (AIN-93G) for 4 weeks in Experiment 1 were killed, their cecums were surgically removed. After the pH and weight of the cecum contents were measured, IgA content and IgG content in the cecal contents were measured. IgA content was measured by ELISA method using anti-IgA antibodies and IgG content was measured by ELISA method using anti-IgG antibodies (MOUSE IgG ELISA QUANTITATION KIT produced by Bethyl Laboratories, Inc) and the amounts of the antibodies per gram of the cecal contents were obtained.

[6] = cecal contents, 4 weeks on 5 w/w % saccharide diet
[7] = cells from mice administered the saccharide
[8] = relative to Peyer's patch cells of control mice, 2 μg/ml concanavalin A, 48 hours, average of five mice
[9] = after 4 weeks on 5 w/w % saccharide diet
[10] = after 4 weeks on 5 w/w % saccharide diet, per gram of cecal contents

OC[C@H]1O[C@@H]2OC[C@H]3O[C@H](O[C@@H]4[C@@H](O)[C@@H](OC[C@H]5O[C@H](O[C@H]([C@H]2O)[C@@H]1O)[C@H](O)[C@@H](O)[C@@H]5O)O[C@H](CO)[C@H]4O)[C@H](O)[C@@H](O)[C@@H]3O [Cyclic tetrasaccharide, cyclo{>6)-α-D-glucopyranosyl-(1>3)-α-D -glucopyranosyl-(1>6)-α-D-glucopyranosyl-(1>3)-α-D -glucopyranosyl-(1>}]
IgA content in feces ([1]; First week (age in 8 weeks), 5 w/w % saccharide in AIN-93G diet): 5.61 mg/g
IgA content in feces, relative amount with respect to control ([1]; First week, 5 w/w % saccharide in diet): 106%
IgA content in feces ([1]; Fourth week (age in 11 weeks), 5 w/w % saccharide in diet): 7.09 mg/g
IgA content in feces, relative amount with respect to control ([1]; Fourth week, 5 w/w % saccharide in diet): 328%
IgA content in feces ([1]; Second week (age in 9 weeks), 5 w/w % saccharide in diet): 8.47 mg/g
IgA content in feces, relative amount with respect to control ([1]; Second week, 5 w/w % saccharide in diet): 214%
IgA content in feces ([1]; Third week (age in 10 weeks), 5 w/w % saccharide in diet): 7.57 mg/g
IgA content in feces, relative amount with respect to control ([1]; Third week, 5 w/w % saccharide in diet): 346%
IgA contents in feces of the mice (in words) ([1]; added in the purified diet): increased
Acetic acid, relative amount to control mice ([2]; cecal contents): (94%)
Formic acid, relative amount to control mice ([2]; cecal contents): (258%)
Isobutyric acid, relative amount to control mice ([2]; cecal contents): (70%)
Isovaleric acid, relative amount to control mice ([2]; cecal contents): (73%)
Lactic acid, relative amount to control mice ([2]; cecal contents): (1000%)
Malic acid, relative amount to control mice ([2]; cecal contents): (179%)
Propionic acid, relative amount to control mice ([2]; cecal contents): (100%)
Succinic acid, relative amount to control mice ([2]; cecal contents): (267%)
Total organic acids, relative amount to control mice ([2]; cecal contents): (109%)
n-Butyric acid, relative amount to control mice ([2]; cecal contents): (206%)
n-Valeric acid, relative amount to control mice ([2]; cecal contents): (73%)
Amount of organic acid: Acetic acid [2, 6]: 63 µmol/g
Amount of organic acid: Formic acid [2, 6]: 0.82 µmol/g
Amount of organic acid: Isobutyric acid [2, 6]: 1.9 µmol/g
Amount of organic acid: Isovaleric acid [2, 6]: 2.4 µmol/g
Amount of organic acid: Lactic acid [2, 6]: 4.2 µmol/g
Amount of organic acid: Malic acid [2, 6]: 1.5 µmol/g
Amount of organic acid: Propionic acid [2, 6]: 12 µmol/g
Amount of organic acid: Succinic acid [2, 6]: 5.6 µmol/g
Amount of organic acid: Total organic acids [2, 6]: 106 µmol/g
Amount of organic acid: n-Butyric acid [2, 6]: 14 µmol/g
Amount of organic acid: n-Valeric acid [2, 6]: 0.87 µmol/g
lactic acid content in cecal contents (in words) ([2]; mouse, in vivo): increased
Relative amount of IFN-γ ([3]; ConA 2 μg/ml): 269%
Relative amount of IL-4 ([3]; ConA 2 μg/ml): 96%
Relative amount of IFN-γ ([3]; LPS 2 μg/ml): 103%
Relative amount of IL-4 ([3]; LPS 2 μg/ml): 101%
IFN-γ production by stimulation of concanavalin A (in words) [3]: accelerated
IgA secretion in Peyer's patch cells (in words) [4, 7]: increased
production of IL-6 in Peyer's patch cells (in words) [4, 7]: increased
production of TGF-β in Peyer's patch cells (in words) [4, 7]: increased
Relative IL-6 content [4, 8]: 326%
Relative IgA content [4, 8]: 209%
Relative TGF-β content [4, 8]: 142%
IgA contents in cecal contents (in words) ([5]; 4 weeks on saccharide diet): highest increase
Weight of cecal contents [5, 9]: 169 mg
pH of cecal contents [5, 9]: 7.16
IgA content in cecal contents [5, 10]: 4.4 mg/g
IgG content in cecal contents [5, 10]: 85 mg/g

OC[C@H]1O[C@H](OC[C@H]2OC(O)[C@H](O)[C@@H](O)[C@@H]2O)[C@H](O)[C@@H](O)[C@@H]1O (stereo partly shown) [Isomaltose, isomaltose]
Relative amount of IFN-γ ([3]; ConA 2 μg/ml): 53%
Relative amount of IL-4 ([3]; ConA 2 μg/ml): 100%
Relative amount of IFN-γ ([3]; LPS 2 μg/ml): 100%
Relative amount of IL-4 ([3]; LPS 2 μg/ml): 97%
IFN-γ production by stimulation of concanavalin A (in words) [3]: suppressed

OC[C@H]1O[C@H](O[C@H]2[C@H](O)[C@@H](CO)OC(O)[C@@H]2O)[C@H](O)[C@@H](O)[C@@H]1O (stereo partly shown) [Nigerose, nigerose]
Relative amount of IFN-γ ([3]; ConA 2 μg/ml): 63%
Relative amount of IL-4 ([3]; ConA 2 μg/ml): 100%
Relative amount of IFN-γ ([3]; LPS 2 μg/ml): 104%
Relative amount of IL-4 ([3]; LPS 2 μg/ml): 99%
IFN-γ production by stimulation of concanavalin A (in words) [3]: suppressed
